{
  "source": "paper PMC10732257",
  "about": "(Oncotarget, 2023)",
  "key": {"M3 (muscarinic Ach)": {"molecular_target": "M3 (muscarinic Ach) (Homo sapiens, UniProt P20309)", "sequence (P20309 whole entry)": "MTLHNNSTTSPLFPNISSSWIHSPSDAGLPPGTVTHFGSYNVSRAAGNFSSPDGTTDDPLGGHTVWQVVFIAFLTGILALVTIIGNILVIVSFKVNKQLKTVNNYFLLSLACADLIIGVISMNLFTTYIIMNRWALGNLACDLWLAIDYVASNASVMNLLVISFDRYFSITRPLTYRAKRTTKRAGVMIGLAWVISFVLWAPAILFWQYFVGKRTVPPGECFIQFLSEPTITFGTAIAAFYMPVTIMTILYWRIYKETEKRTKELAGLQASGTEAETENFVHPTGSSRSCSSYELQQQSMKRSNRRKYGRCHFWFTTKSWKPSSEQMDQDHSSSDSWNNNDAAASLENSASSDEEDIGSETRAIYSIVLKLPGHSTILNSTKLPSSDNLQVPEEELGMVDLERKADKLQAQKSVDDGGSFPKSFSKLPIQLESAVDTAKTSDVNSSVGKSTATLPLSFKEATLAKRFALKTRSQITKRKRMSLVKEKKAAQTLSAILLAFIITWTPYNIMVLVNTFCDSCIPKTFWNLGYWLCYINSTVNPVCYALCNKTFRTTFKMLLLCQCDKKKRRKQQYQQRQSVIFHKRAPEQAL", "test": "GPCR competitive antagonist (off-target inhibitory action) testing", "format": "cell-based", "from_the_text": "(§1) Supplementary Table 3: Results of off-target inhibitory action testing of GFH009 administered at\n(§2) Competitive antagonist activity against GPCR type shown below\n(§3) Target % Inhibitory Effect @ Max Dose\n(§4) M1 (muscarinic Ach) 98.78\n(§5) M2 (muscarinic Ach) 95.69\n(§6) M3 (muscarinic Ach) 99.12"}, "M2 (muscarinic Ach)": {"molecular_target": "M2 (muscarinic Ach) (Homo sapiens, UniProt P08172)", "sequence (P08172 whole entry)": "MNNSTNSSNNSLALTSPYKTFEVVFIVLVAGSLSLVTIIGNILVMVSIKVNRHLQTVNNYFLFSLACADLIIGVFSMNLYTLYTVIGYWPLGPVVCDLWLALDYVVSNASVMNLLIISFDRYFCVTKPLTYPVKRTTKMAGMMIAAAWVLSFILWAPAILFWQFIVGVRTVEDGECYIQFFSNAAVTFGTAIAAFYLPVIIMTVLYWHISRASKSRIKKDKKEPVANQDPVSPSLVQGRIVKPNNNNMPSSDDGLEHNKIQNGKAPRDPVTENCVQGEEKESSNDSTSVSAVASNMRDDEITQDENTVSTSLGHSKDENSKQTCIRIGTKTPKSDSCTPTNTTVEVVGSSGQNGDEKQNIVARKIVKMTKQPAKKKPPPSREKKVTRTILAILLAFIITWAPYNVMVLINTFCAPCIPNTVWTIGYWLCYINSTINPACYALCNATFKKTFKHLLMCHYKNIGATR", "test": "GPCR competitive antagonist (off-target inhibitory action) testing", "format": "cell-based", "from_the_text": "as §1, §2, §3, §4, §5, §6"}, "M1 (muscarinic Ach)": {"molecular_target": "M1 (muscarinic Ach) (Homo sapiens, UniProt P11229)", "sequence (P11229 whole entry)": "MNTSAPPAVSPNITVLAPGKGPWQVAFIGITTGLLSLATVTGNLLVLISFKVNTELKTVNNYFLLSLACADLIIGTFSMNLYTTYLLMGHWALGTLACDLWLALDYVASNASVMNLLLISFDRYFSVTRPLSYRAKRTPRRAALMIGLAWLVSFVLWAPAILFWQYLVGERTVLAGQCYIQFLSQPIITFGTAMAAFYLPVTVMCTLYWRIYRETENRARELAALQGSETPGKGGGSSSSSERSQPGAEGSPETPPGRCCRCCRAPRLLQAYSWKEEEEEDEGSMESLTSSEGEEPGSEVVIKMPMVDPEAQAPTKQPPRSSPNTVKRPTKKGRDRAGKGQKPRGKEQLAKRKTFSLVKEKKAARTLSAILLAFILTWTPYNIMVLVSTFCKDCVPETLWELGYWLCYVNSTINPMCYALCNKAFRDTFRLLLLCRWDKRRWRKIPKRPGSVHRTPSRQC", "test": "GPCR competitive antagonist (off-target inhibitory action) testing", "format": "cell-based", "from_the_text": "as §1, §2, §3, §4, §5, §6"}, "[1]": {"tested_on": "human hematological malignancy-derived cell lines", "test": "Cell viability / antiproliferative activity by CellTiter Glo", "format": "cell-based", "details": "in 7 of the 10 lines tested, 24 hours of exposure", "method": "Figure 3 Effect of GFH009 on cell proliferation in assorted human hematologic malignancy cell lines. Cell viability IC50s for GFH009 on human hematological malignancy-derived cell lines after 24 hours of exposure to the agent were determined using CellTiter Glo.\nThe antiproliferative activity of GFH009 was assessed in cultured cell lines derived from human hematological malignancies over a period of 24-hour in vitro assay readouts. Enitociclib was used as a comparator for experimental validation (provided by MedChem Express, Monmouth, NJ, USA). Cell growth was analyzed by CellTiter Glo in 96-well plates and detected via chemiluminescent signal. The absolute inhibitory concentration of 50% (AbsIC50 values of the drug were calculated by fitting the drug inhibition rate curve with the “log (inhibitor) versus response – variable slope (4 parameters)” model by using the Prism GraphPad 6 for Windows v6.01 software."}, "CDK9/cyclin T1(h)": {"molecular_target": "CDK9/cyclin T1(h) (Homo sapiens, UniProt P50750)", "sequence (P50750 whole entry)": "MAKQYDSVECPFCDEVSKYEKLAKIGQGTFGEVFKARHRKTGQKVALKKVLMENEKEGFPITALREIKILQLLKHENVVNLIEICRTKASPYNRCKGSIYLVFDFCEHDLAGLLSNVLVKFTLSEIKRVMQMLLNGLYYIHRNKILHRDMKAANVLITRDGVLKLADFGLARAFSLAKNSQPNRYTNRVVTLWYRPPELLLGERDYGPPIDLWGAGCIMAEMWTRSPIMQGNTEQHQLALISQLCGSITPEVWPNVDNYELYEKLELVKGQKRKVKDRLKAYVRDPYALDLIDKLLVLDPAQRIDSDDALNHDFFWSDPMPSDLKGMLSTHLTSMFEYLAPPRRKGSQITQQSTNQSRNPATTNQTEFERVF", "sequence (O60563 whole entry partner)": "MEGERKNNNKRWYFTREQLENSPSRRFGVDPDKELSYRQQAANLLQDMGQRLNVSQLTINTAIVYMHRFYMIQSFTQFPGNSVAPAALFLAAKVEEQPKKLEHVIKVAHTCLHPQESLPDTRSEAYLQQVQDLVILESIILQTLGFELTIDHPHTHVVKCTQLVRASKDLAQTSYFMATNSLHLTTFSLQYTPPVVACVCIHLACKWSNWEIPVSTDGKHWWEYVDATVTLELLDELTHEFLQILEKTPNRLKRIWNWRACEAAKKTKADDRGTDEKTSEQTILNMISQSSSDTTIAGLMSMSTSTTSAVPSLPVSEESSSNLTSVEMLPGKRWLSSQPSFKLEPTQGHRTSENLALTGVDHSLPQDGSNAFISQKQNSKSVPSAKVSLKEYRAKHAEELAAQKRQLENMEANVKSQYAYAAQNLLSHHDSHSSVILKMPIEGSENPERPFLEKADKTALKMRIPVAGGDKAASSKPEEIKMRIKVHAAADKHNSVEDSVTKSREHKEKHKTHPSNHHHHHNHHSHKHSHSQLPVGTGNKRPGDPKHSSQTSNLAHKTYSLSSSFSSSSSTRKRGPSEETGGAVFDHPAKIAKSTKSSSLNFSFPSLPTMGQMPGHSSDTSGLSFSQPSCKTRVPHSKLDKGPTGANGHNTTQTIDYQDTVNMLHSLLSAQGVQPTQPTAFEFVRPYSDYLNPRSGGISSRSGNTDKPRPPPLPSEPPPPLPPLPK", "details": "read-out: IC50 of inhibition of the CDK9/Cyclin T1 complex; radiometric kinase activity", "method": "Figure 2 Effect of GFH009 on CDK9 enzymatic activity. IC50 of GFH009 inhibition activity against the CDK9/cyclin T1 complex was determined with Eurofin KinaseProfiler radiometric protein kinase activity.\nGFH009 inhibition activity against the CDK9/cyclin T1 complex as well as off-target CDK family reactivity were assayed by Eurofins Pharma Discovery Services UK Ltd., (Dundee, UK). Determination of off-target inhibition of other kinases was conducted by DiscoverX LeadHunter Discovery Services (Freemont, CA, USA.) GFH009 reactivity to GPCR family members was assayed by Wuxi AppTech (Shanghai, China)."}},
  "note": "pIC50: −log10 of the molar value.",
  "data": [
    {"smiles": "COC[C@@H](C)NC1CCC(Nc2cc(-c3csc(NCC4(C#N)CCOCC4)n3)c(Cl)cn2)CC1", "note": "(some centres unmarked) [GFH009]", "values": [
      {"measurement": "% Inhibitory Effect @ Max Dose (10 µM)", "setting": "M3 (muscarinic Ach)", "result": 99.12, "unit": "%"},
      {"measurement": "% Inhibitory Effect @ Max Dose (10 µM)", "setting": "M2 (muscarinic Ach)", "result": 95.69, "unit": "%"},
      {"measurement": "% Inhibitory Effect @ Max Dose (10 µM)", "setting": "M1 (muscarinic Ach)", "result": 98.78, "unit": "%"},
      {"measurement": "pIC50", "setting": "[1]", "result": "> 6.70"},
      {"measurement": "pIC50", "setting": "CDK9/cyclin T1(h)", "result": 8.05}
    ]}
  ]
}
